From patent publication US9113629B2, “4-amino-6-(4-substituted-phenyl)-picolinates and 6-amino-2-(4-substituted-phenyl)-pyrimidine-4-carboxylates and their use as herbicides” (DOW AGROSCIENCES LLC, priority 2013, dated 2015)
Where two headings read alike, the source gives them in different places.

Tests used:
[1] = test system: Key Grass and Sedge Weeds as well as Grass Crops; assay: Post-emergent Test II herbicidal activity (Table 6); assay type: in vivo; details: post-emergence, 336 h; for pest or weed control at 66 g/ha: 66 g ai/ha; for pest or weed control at 132 g/ha: 132 g ai/ha
Summary of the method: (§1)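 Test species were raised 7–21 d under greenhouse conditions until reaching the first or second true leaf, sprayed with formulated compound at 187 L/ha, and kept subirrigated to avoid wash-off. Fourteen days later, damage was rated visually on a 0–100% scale against untreated plants.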

[2] = test system: Key Broadleaf Weed and Crop Species; assay: Post-emergent Test II herbicidal activity (Table 5); assay type: in vivo; details: post-emergence, 336 h, 14 days after application; for pest or weed control at 66 g/ha: application rate 66 g ai/ha; for pest or weed control at 132 g/ha: application rate 132 g ai/ha
Summary of the method: as §1

[3] = CYPES: yellow nutsedge (Cyperus esculentus), read-out: Visual Growth Reduction (%) 14 Days After Application, CYPES
[4] = DIGSA: crabgrass (Digitaria sanguinalis), read-out: Visual Growth Reduction (%) 14 Days After Application, DIGSA
[5] = ECHCG: barnyardgrass (Echinochloa crus-galli), read-out: Visual Growth Reduction (%) 14 Days After Application, ECHCG
[6] = ORYSA: rice (Oryza sativa), crop, read-out: Visual Growth Reduction (%) 14 Days After Application, ORYSA
[7] = SETFA: giant foxtail (Setaria faberi), read-out: Visual Growth Reduction (%) 14 Days After Application, SETFA
[8] = SORVU: grain sorghum (Sorghum vulgare), read-out: Visual Growth Reduction (%) 14 Days After Application, SORVU
[9] = TRZSS (wheat, Triticum aestivum), crop, read-out: Visual Growth Reduction (%) 14 Days After Application, TRZSS
[10] = ZEAMX: maize, corn (Zea mays), crop, read-out: Visual Growth Reduction (%) 14 Days After Application, ZEAMX
[11] = ABUTH: velvetleaf (Abutilon theophrasti), read-out: Visual Growth Reduction (%) 14 Days After Application, ABUTH
[12] = AMARE: redroot pigweed (Amaranthus retroflexus), read-out: Visual Growth Reduction (%) 14 Days After Application, AMARE
[13] = BRSNN: oilseed-rape, canola (Brassica napus), read-out: Visual Growth Reduction (%) 14 Days After Application, BRSNN
[14] = CHEAL: lambsquarters (Chenopodium album), read-out: Visual Growth Reduction (%) 14 Days After Application, CHEAL
[15] = EPHHL: wild poinsettia (Euphorbia heterophylla), read-out: Visual Growth Reduction (%) 14 Days After Application, EPHHL
[16] = HELAN: sunflower (Helianthus annuus), read-out: Visual Growth Reduction (%) 14 Days After Application, HELAN
[17] = VIOTR: wild pansy (Viola tricolor), read-out: Visual Growth Reduction (%) 14 Days After Application, VIOTR

With `COC(=O)c1nc(-c2ccc(C)c(F)c2)c(F)c(N)c1Cl` [Compound 213] the pest or weed control at 66 g/ha [1, 3] was 0 to 29%, the pest or weed control at 132 g/ha [1, 3] was 45 to 59% and the pest or weed control at 66 g/ha [1, 4] was 0 to 29%. The pest or weed control at 132 g/ha [1, 4] was 0 to 29%, the pest or weed control at 66 g/ha [1, 5] was 85 to 94% and the pest or weed control at 132 g/ha [1, 5] was 85 to 94%. The pest or weed control at 66 g/ha [1, 6] was 0 to 29%, the pest or weed control at 132 g/ha [1, 6] was 0 to 29% and the pest or weed control at 66 g/ha [1, 7] was 0 to 29%. For the same compound, the pest or weed control at 132 g/ha [1, 7] was 0 to 29%, the pest or weed control at 66 g/ha [1, 8] was 75 to 84% and the pest or weed control at 132 g/ha [1, 8] was 95 to 100%. For the same compound, the pest or weed control at 66 g/ha [1, 9] was 0 to 29%, the pest or weed control at 132 g/ha [1, 9] was 0 to 29% and the pest or weed control at 66 g/ha [1, 10] was 60 to 74%. For the same compound, the pest or weed control at 132 g/ha [1, 10] was 75 to 84%, the pest or weed control at 66 g/ha [2, 11] was 95 to 100% and the pest or weed control at 132 g/ha [2, 11] was 95 to 100%. It also gave a pest or weed control at 66 g/ha [2, 12] of 95 to 100%, a pest or weed control at 132 g/ha [2, 12] of 95 to 100% and a pest or weed control at 66 g/ha [2, 13] of 85 to 94%. It also gave a pest or weed control at 132 g/ha [2, 13] of 85 to 94%, a pest or weed control at 66 g/ha [2, 14] of 95 to 100% and a pest or weed control at 132 g/ha [2, 14] of 95 to 100%. It also gave a pest or weed control at 66 g/ha [2, 15] of 95 to 100%, a pest or weed control at 132 g/ha [2, 15] of 95 to 100% and a pest or weed control at 66 g/ha [2, 16] of 95 to 100%. For the same compound, the pest or weed control at 132 g/ha [2, 16] was 95 to 100%, the pest or weed control at 66 g/ha [2, 17] was 0 to 29% and the pest or weed control at 132 g/ha [2, 17] was 0 to 29%. It also gave a melting point of 127 °C.
